From patent publication US8859541B2, “6-alkynylpyridines” (Boehringer Ingelheim International GmbH, priority 2012, dated 2014)

Molecular target: T1, XIAP BIR3 (Homo sapiens, UniProt P98170)
T1 construct: covering amino acids 241 to 356; XIAP BIR3; made in house; host or cells: E. coli
Test: XIAP BIR3 binding assay (DELFIA), displacement of SMAC peptide
Conditions: GST-fusion BIR3 domain (aa 241 to 356) 10 nM, SMAC peptide 10 nM; activity of the (S)-isomers
Description: Biological Methods XIAP BIR3 and cIAP1 BIR3 Binding Assays (DELFIA)
Peptide […]-Lys(Biotin), representing the N-terminus of mature human SMAC (SMAC peptide), was used as interaction partner in the protein-peptide interaction assay.
BIR3 domains (10 nM) were incubated with SMAC peptide (10 nM) in Assay Buffer (50 mM Tris, 120 mM NaCl, 0.1% BSA, 1 mM DTT, 0.05% TritonX100) for one hour at room temperature in the presence of inhibitiory compounds. The assay mixture was transferred to a strepatvidin coated plate and incubated for one hour at room temperature to allow binding of the biotinylated peptide and associated BIR3 domains to the plate. After several washing steps Eu labeled anti-GST antibody (e.g. Perkin Elmer DELFIA Eu-N1-antiGST AD0250) was added to detect BIR3 domain-SMAC peptide interactions according to Perkin Elmer's instructions. […] Time resolved Europium fluoresecence was measured in a Wallac Victor using Standard assay settings.
DELFIA assay results were plotted against compound concentrations and Software GraphPad Prizm was used to calculate half maximal inhibitory concentrations (IC50 values).

T1 sequence (P98170 241-356): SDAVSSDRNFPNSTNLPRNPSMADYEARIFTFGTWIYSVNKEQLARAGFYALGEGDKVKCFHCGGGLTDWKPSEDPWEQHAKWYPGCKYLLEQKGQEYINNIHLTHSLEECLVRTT

SMILES	IC50 [nM]
CNC(C)C(=O)Nc1ccc(-c2c(C)cncc2C)c(C#Cc2ccc3ncccc3c2)n1 (centres unmarked) [Example 1, N-[5-(3,5-dimethylpyridin-4-yl)-6-(2-quinolin-6-ylethynyl)pyridin-2-yl]-2-(methylamino)propanamide]	287
CNC(C)C(=O)Nc1ccc(-c2cncnc2)c(C#Cc2ccc3c(c2)OCCCO3)n1 (centres unmarked) [Example 2, N-(6-[2-(3,4-dihydro-2H-1,5-benzodioxepin-7-yl)ethynyl]-5-pyrimidin-5-ylpyridin-2-yl]-2-(methylamino)propanamide]	259
CNC(C)C(=O)Nc1ccc(-c2cncc3ccccc23)c(C#Cc2ccc(OC)cc2)n1 (centres unmarked) [Example 3, N-[5-isoquinolin-4-yl-6-[2-(4-methoxyphenyl)ethynyl]-pyridin-2-yl]-2-(methyl-amino)propanamide]	1150
CNC(C)C(=O)Nc1ccc(-c2cncc3ccccc23)c(C#Cc2ccc(F)cc2)n1 (centres unmarked) [Example 4, N-[6-[2-(4-fluorophenyl)-ethynyl]-5-isoquinolin-4-ylpyridin-2-yl]-2-(methyl-amino)propanamide]	643
CNC(C)C(=O)Nc1ccc(-c2cncc3ccccc23)c(C#Cc2ccc3c(c2)OCC(=O)N3)n1 (centres unmarked) [Example 5, N-[5-isoquinolin-4-yl-6-[2-(3-oxo-4H-1,4-benzoxazin-7-yl)-ethynyl]pyridin-2-yl]-2-(methylamino)propanamide]	509
CNC(C)C(=O)Nc1ccc(-c2cncnc2C)c(C#Cc2ccc(C)c(C)c2)n1 (centres unmarked) [Example 6, N-[6-[2-(3,4-dimethylphenyl)-ethynyl]-5-(4-methylpyrimidin-5-yl)pyridin-2-yl]-2-(methylamino)propan-amide]	214
CNC(C)C(=O)Nc1ccc(-c2cncnc2)c(C#Cc2ccc3[nH]c(C)nc3c2)n1 (centres unmarked) [Example 7, 2-(methylamino)-N-[6-[2-(2-methyl-1H-benzimidazol-5-yl)ethynyl]-5-pyrimidin-5-ylpyridin-2-yl]propanamide]	460
CNC(C)C(=O)Nc1ccc(-c2cncnc2)c(C#Cc2ccc(-c3ccccn3)s2)n1 (centres unmarked) [Example 8, 2-(methylamino)-N-[6-[2-(5-pyridin-2-ylthiophen-2-yl)-ethynyl]-5-pyrimidin-5-ylpyridin-2-yl]propanamide]	351
CNC(C)C(=O)Nc1ccc(-c2cncnc2)c(C#Cc2ccc3ccccc3n2)n1 (centres unmarked) [Example 9, 2-(methylamino)-N-[5-pyrimidin-5-yl-6-(2-quinolin-2-ylethynyl)pyridin-2-yl]-propanamide]	1010
CNC(C)C(=O)Nc1ccc(-c2cncnc2)c(C#Cc2ccc3[nH]cnc3c2)n1 (centres unmarked) [Example 10, N-[6-[2-(1H-benzimidazol-5-yl)ethynyl]-5-pyrimidin-5-ylpyridin-2-yl]-2-(methyl-amino)propanamide]	787
CNC(C)C(=O)Nc1ccc(-c2cncnc2)c(C#Cc2ccc3c(c2)C(=O)CCO3)n1 (centres unmarked) [Example 11, 2-(methylamino)-N-[6-[2-(4-oxo-2,3-dihydrochromen-6-yl)ethynyl]-5-pyrimidin-5-ylpyridin-2-yl]propanamide]	1210
CNC(C)C(=O)Nc1ccc(-c2cncnc2)c(C#Cc2ccc(OC)c(C#N)c2)n1 (centres unmarked) [Example 12, N-[6-[2-(3-cyano-4-methoxyphenyl)ethynyl]-5-pyrimidin-5-ylpyridin-2-yl]-2-(methylamino)propanamide]	1430
CNC(C)C(=O)Nc1ccc(-c2cncnc2)c(C#Cc2ccc3c(c2)OCCO3)n1 (centres unmarked) [Example 14, N-[6-[2-(2,3-dihydro-1,4-benzodioxin-6-yl)ethynyl]-5-pyrimidin-5-ylpyridin-2-yl]-2-(methylamino)propanamide]	417
CNC(C)C(=O)Nc1ccc(-c2cncnc2)c(C#Cc2ccc3scnc3c2)n1 (centres unmarked) [Example 15, N-[6-[2-(1,3-benzothiazol-5-yl)ethynyl]-5-pyrimidin-5-ylpyridin-2-yl]-2-(methyl-amino)propanamide]	711
CNC(C)C(=O)Nc1ccc(-c2cncc3ccccc23)c(C#Cc2ccc3occc3c2)n1 (centres unmarked) [Example 16, N-[6-[2-(1-benzofuran-5-yl)-ethynyl]-5-isoquinolin-4-ylpyridin-2-yl]-2-(methyl-amino)propanamide]	554
CNC(C)C(=O)Nc1ccc(-c2cncnc2)c(C#Cc2cc(F)cc(Cl)c2)n1 (centres unmarked) [Example 17, N-[6-[2-(3-chloro-5-fluorophenyl)ethynyl]-5-pyrimidin-5-ylpyridin-2-yl]-2-(methylamino)propanamide]	122
CNC(C)C(=O)Nc1ccc(-c2cncnc2)c(C#Cc2ccc3ccncc3c2)n1 (centres unmarked) [Example 18, N-[6-(2-isoquinolin-7-yl-ethynyl)-5-pyrimidin-5-ylpyridin-2-yl]-2-(methyl-amino)propanamide]	745
CNC(C)C(=O)Nc1ccc(-c2cncnc2)c(C#Cc2ccc3ncccc3c2)n1 (centres unmarked) [Example 19, 2-(methylamino)-N-[5-pyrimidin-5-yl-6-(2-quinolin-6-ylethynyl)pyridin-2-yl]-propanamide]	867
CNC(C)C(=O)Nc1ccc(-c2cncnc2)c(C#Cc2ccc3oc4ccccc4c3c2)n1 (centres unmarked) [Example 20, N-[6-(2-dibenzofuran-2-yl-ethynyl)-5-pyrimidin-5-ylpyridin-2-yl]-2-(methyl-amino)propanamide]	4280
CNC(C)C(=O)Nc1ccc(-c2c(C)ccc3c2cnn3C)c(C#Cc2ccc3ncccc3c2)n1 (centres unmarked) [Example 21, N-[5-(1,5-dimethylindazol-4-yl)-6-(2-quinolin-6-ylethynyl)-pyridin-2-yl]-2-(methyl-amino)propanamide]	540
CNC(C)C(=O)Nc1ccc(-c2cccc3ccncc23)c(C#Cc2ccc3ncccc3c2)n1 (centres unmarked) [Example 22, N-[5-isoquinolin-8-yl-6-(2-quinolin-6-ylethynyl)pyridin-2-yl]-2-(methylamino)propan-amide]	1300
CNC(C)C(=O)Nc1ccc(-c2cncnc2)c(C#Cc2ccc3ccccc3c2)n1 (centres unmarked) [Example 23, 2-(methylamino)-N-[6-(2-naphthalen-2-ylethynyl)-5-pyrimidin-5-ylpyridin-2-yl]-propanamide]	265
CNC(C)C(=O)Nc1ccc(-c2c(C)ccc3ncccc23)c(C#Cc2ccc3ncccc3c2)n1 (centres unmarked) [Example 24, 2-(methylamino)-N-[5-(6-methylquinolin-5-yl)-6-(2-quinolin-6-ylethynyl)pyridin-2-yl]propanamide]	698
CNC(C)C(=O)Nc1ccc(-c2cncnc2C)c(C#Cc2ccc3cncnc3c2)n1 (centres unmarked) [Example 25, 2-(methylamino)-N-[5-(4-methylpyrimidin-5-yl)-6-(2-quinazolin-7-ylethynyl)-pyridin-2-yl]propanamide]	653
CNC(C)C(=O)Nc1ccc(-c2c(C)nc3ccccn23)c(C#Cc2ccc3c(=O)n(C)ccc3c2)n1 (centres unmarked) [Example 32, 2-(methylamino)-N-[5-(2-methylimidazo[1,2-a]pyridin-3-yl)-6-[2-(2-methyl-1-oxoisoquinolin-6-yl)ethynyl]-pyridin-2-yl]propanamide]	228
CNC(C)C(=O)Nc1ccc(-c2c(C)nc3ccccn23)c(C#Cc2ccc(C#N)c(C)c2)n1 (centres unmarked) [Example 38, N-[6-[2-(4-cyano-3-methyl-phenyl)ethynyl]-5-(2-methyl-imidazo[1,2-a]pyridin-3-yl)-pyridin-2-yl]-2-(methylamino)-propanamide]	142
